Assay results taken from US20080234363A1, “Antitumoral Compounds” (PHARMA MAR, S.A., priority 2005, published 2008).

Legend:
[1] = tested on: A549; assay: SRB antitumor screening, A549; assay type: cell-based; conditions: for CC50 / GI50: Homo sapiens; for CC50: A549, 48 h, read-out: LC50; for GI50 / TGI: NSCL A549, SRB, 48 hours exposure
From the text: (§1) The finality of these assays was to interrupt the growth of a “in vitro” tumor cell culture by means of a continued exhibition of the cells to the sample to be testing.
(§2) A colorimetric type of assay, using sulforhodamine B (SRB) reaction has been adapted for a quantitative measurement of cell growth and viability [following the technique described by Philip Skehan et al. (1990), New colorimetric cytotoxicity assay for anticancer drug screening, J. Natl. Cancer Inst., 82:1107-1112].
(§3) This form of assay employed 96 well cell culture microplates of 9 mm diameter (Faircloth et al. Methods in cell science, (1988), 11(4), 201-205; Mosmann, Journal of. Immunological Methods (1983), 65(1-2), 55-63. Most of the cell lines were obtained from American Type Culture Collection (ATCC) derived from different human cancer types.
(§4) Cells were maintained in RPMI 1640 10% FBS, supplemented with 0.1 g/L penicillin and 0.1 g/L streptomycin sulphate and then incubated at 37° C., 5% CO2 and 98% humidity. For the experiments, cells were harvested from subconfluent cultures using trypsin and resuspended in fresh medium before plating.
(§5) Cells were seeded in 96 well microtiter plates, at 5×10^3 cells per well in aliquots of 195 μL medium, and they were allowed to attach to the plate surface by growing in drug free medium for 18 hours. Afterward, samples were added in aliquots of 5 μL in a ranging from 10 to 10^−8 μg/mL, dissolved in DMSO:EtOH:PBS (0.5:0.5:99). After 48 hours exposure, the antitumor effect were measured by the SRB methodology: cells were fixed by adding 50 μL of cold 50% (wt/vol) trichloroacetic acid (TCA) and incubated for 60 minutes at 4° C. Plates were washed with deionised water and dried. One hundred μL of SRB solution (0.4% wt/vol in 1% acetic acid) was added to each microtiter well and incubated for 10 minutes at room temperature. Unbound SRB was removed by washing with 1% acetic acid. Plates were air dried and bound stain was solubilized with Tris buffer. Optical densities were read on an automated spectrophotometric plate reader at a single wavelength of 490 nm.
(§6) The values for mean +/−SD of data from triplicate wells were calculated. Some parameters for cellular responses could be calculated: GI=growth inhibition, TGI=total growth inhibition (cytostatic effect) and LC=cell killing (cytotoxic effect).

[2] = tested on: MDA-MB-231; assay: SRB antitumor screening, MDA-MB-231; assay type: cell-based, human; conditions: Breast MDA-MB-231, SRB, 48 hours exposure; for GI50: Homo sapiens
From the text: as §1, §2, §3, §4
as §5, with “One hundred μL of SRB solution (0.4% wt/vol in 1% acetic acid) was added to each microtiter well and incubated for 10 minutes at room temperature. Unbound SRB was removed by washing with 1% acetic acid. Plates were air dried and bound stain was solubilized with Tris buffer.” left out
as §6

[3] = tested on: HT29; assay: SRB antitumor screening, HT29; assay type: cell-based, human; conditions: Colon HT29, SRB, 48 hours exposure; for GI50: Homo sapiens, HT-29
From the text: as §1, §2, §3, §4
as §5, with “One hundred μL of SRB solution (0.4% wt/vol in 1% acetic acid) was added to each microtiter well and incubated for 10 minutes at room temperature. Unbound SRB was removed by washing with 1% acetic acid. Plates were air dried and bound stain was solubilized with Tris buffer.” left out
as §6

[4] = tested on: EGFR intracellular signaling (AP-1 activity); assay: EGFR signalling inhibition assay (AP-1 luciferase reporter, HeLa-AP1); assay type: cell-based; conditions: Homo sapiens; HeLa-AP1 cells, EGF 25 ng/mL stimulation, 18 hours
From the text: In this assay, the signal transduction pathway triggered by the activated Epidermal Growth Factor (EGF) membrane receptor is indirectly quantified using an EGF-responsive, API-mediated, luciferase reporter system.
HeLa-AP1, a subclone of HeLa cell line (human cervix carcinoma, ATCC# CCL-2) stably transfected with a construct containing the luciferase reporter gene under the control of the proximal promoter of the human collagenase-3 gene (consensus AP-1 response element TGACTCA at positions −56/−50) were used. Cells were maintained in DMEM supplemented with 10% FCS and 100 units/mL penicillin and streptomycin at 37° C. and 5% CO2. HeLa-AP1 cells were pre-treated with the indicated compounds for 30 min before stimulation with EGF (25 ng/mL). After further 18 hours incubation, cell survival was estimated, for normalisation, by loading cells for 30 min with the vital fluorescent probe calcein-AM (0.5 μM). Fluorescence was quantified using a 1420 Victor^2 plate multilabel counter (Wallac). After that, cells were lysed and assayed for luciferase activity using the Bright-Glo system (Promega) and a 1450 Microbeta plate luminescence counter (Wallac-Trilux). Results were expressed as percentage of AP-1 activity inhibition as compared to control, untreated cells.

[5] = molecular target: T1, cytochrome b-cl segment (Bos taurus, UniProt P00157+P13272); conditions: bovine heart submitochondrial particles; cited from earlier work
T1 construct: bovine heart submitochondrial particles at the site of the cytochrome b-cl segment; host or cells: bovine heart submitochondrial particles

[6] = tested on: photosynthetic electron transport; conditions: cited from earlier work
[7] = Single-administration dose range finding in mice (MTD); conditions: mouse, in vivo; CD-1 male mice, single intravenous administration, vehicle micelles
Procedure: The finality of this assay was to determine the maximum tolerated dose (MTD) in mice by a single administration of the drug.
CD-1 male mice were used for this study, weighing ca. 25 g were randomly allocated to several dosing groups. Animals received a single intravenous administration of Stigmatellin A (CAS Number: 91682-96-1, purchased from Fluka (Ref: 85865)) dosed into the lateral vein of the tail. […] Mortality was recorded daily. The Maximum Tolerated Dose (MTD) was determined based on the mortality found in each dose level, calculated when mortality vs. dose is 0%.

[8] = tested on: CD-1 male mice; assay: Multiple-administration dose range finding in mice (MTMD); assay type: in vivo
Procedure: The finality of this assay was to determine the maximum tolerated multiple dose (MTMD) in mice by a multiple administration of the drug.
CD-1 male mice were used for this study, weighing ca. 25 g were randomly allocated to several dosing groups. Animals received a multiple doses by either intravenous or extravascular (intraperitoneal) route. […] Mortality was daily recorded. The MTMD was determined based on the mortality found in each dose level, calculated when mortality vs. dose is 0%.

Structure (SMILES) | CC50 [1] [nM] | GI50 [1] [nM] | TGI [1] [Molar] | TGI [2] [Molar] | GI50 [2] [nM] | TGI [3] [Molar] | GI50 [3] [nM] | IC50 [4] [nM] | inhibitory potency [5] | inhibition of photosynthetic electron transport [6] | MTD at 4 days [7] [mg/kg] | MTMD ([8]; ip/5DD, liposomes at 0.035 mg/mL) [mg/kg] | MTMD ([8]; iv/5DD, liposomes at 0.096 mg/mL) [mg/kg]
CCCC(C)/C=C/C=C/[C@H](OC)[C@@H](C)[C@@H](OC)[C@@H](C)CCc1oc2c(O)c(OC)cc(OC)c2c(=O)c1C (stereo partly shown) [Compound I] | 4150 | 92.3 | 5.28E−7 | 3.20E−6 | 153 | 5.84E−6 | 867 | 226 | – | – | – | – | –
C/C=C(C)/C=C/C=C/C(OC)C(C)C(OC)C(C)CCc1oc2c(O)c(OC)cc(OC)c2c(=O)c1C (stereo not shown) [Stigmatellin A] | 7580 | 602 | 1.94E−6 | – | 389 | – | 991 | 9720 | identical with that of antimycin and myxothiazol | powerful inhibitor | 0.44 | 0.28 | 0.14
